Assay results from a melting point compilation (Tetko et al.; mined from patent text by program, amines drawn as free bases though some values may be those of a salt).

| SMILES | melting point [°C] |
| --- | --- |
| c1ccc2c(CCCCN3CCc4c(sc5ccccc45)C3)c[nH]c2c1 | 113 to 115 |
| CC(C)(C)c1ccc(C2(C)CC(=Cc3ccccc3)CC2=O)cc1 (stereo not drawn) | 140 to 143 |
| COc1cc(-c2ccc(NC(=O)OC(C)(C)C)cc2)c(C(C)=NOCc2ccc([N+](=O)[O-])cc2)cc1O | 91 to 96.8 |
| Cn1cc(C=O)c2c3sc4ccccc4c3ccc21 | 224 |
| COc1ccc(-n2nc(Cl)cc2-c2ccc(OCCNC(N)=O)cc2)cn1 | 156 to 158 |
| CCc1cnc(N)c2ccccc12 | 84 to 85 |
| O=C(Nc1cccc(S(=O)(=O)Nc2ccccc2)c1)c1cnn2c(C(F)(F)F)cc(-c3ccc(C(F)(F)F)cc3)nc12 | 258 |
| O=C(C=Cc1ccccc1)NNC(=O)c1ccccc1O | 271 |
| O=C(NCCN1CCOCC1)Nc1nc2ccc(OCc3c(F)cccc3Cl)cc2s1 | 210 |
| COc1c(Nc2ncc(Cl)c(Nc3ccccc3S(=O)(=O)N3CCCC3)n2)ccc2c1CCCC(NCCO)C2 (stereo not drawn) | 79 to 82 |
| CCC(CO)Nc1c(-c2c(F)cc(F)cc2F)c(Cl)nc2ncnn12 (stereo not drawn) | 76 to 77 |
| CN(C)CCCCCC=C(NC(=O)C1CC1(C)C)C(=O)O (stereo not drawn) | 101 to 112 |
| O=C(CCC(CSc1ccc2ccccc2c1)C(=O)O)OCc1ccccc1 (stereo not drawn) | 94 to 95 |
| COCCOc1cc2ncc(C#N)c(Nc3cc(OC)c(Cl)cc3Cl)c2cc1OCCN1CCOCC1 | 158 to 159 |
| COc1ccc(C(C)(c2ccc(OC)cc2)c2ccc(N(c3ccc(C)cc3)c3ccc(C)cc3)cc2)cc1 | 147 to 148 |
| Cc1cc(-c2cc(CBr)c(=O)n(Cc3ccccc3Cl)n2)ccc1F | 113 to 115 |
| CC(C)(C)c1cc(OCCCCCCc2nnn[nH]2)cc(C(C)(C)C)c1O | 128 to 131 |
| C=CCNc1nc(NCC=C)c2scc(CC)c2n1 | 55 |
| CC1N=C(N2CCN(C)CC2)NN=C1c1ccccc1 (stereo not drawn) | 124 to 125 |
| Cc1nn(C)c(O)c1C(=O)c1ccc(Cl)cc1[N+](=O)[O-] | 223 to 224 |
| O=C(CCC(=O)N1CCCCC1)c1ccc(F)cc1 | 70 to 71 |
| COc1ccc([N+](=O)[O-])c(C=CN2CCCC2)c1 | 71 to 72 |
| CCOC(=O)N1CCc2c(sc3nc(-c4ccc(F)cc4)cn23)C1 | 164 to 166 |
| CCOc1cc(CCC2OC(=O)NC2=O)ccc1OCc1ccccc1 (stereo not drawn) | 143 to 144 |
| COc1cc2c(cc1OCc1ccccc1)CCN(Cc1ccc(C#N)cc1)C2 | 161 to 162 |

| SMILES | melting point [°C] |
| --- | --- |
| O=[N+]([O-])c1ccc(N2CCN(CCCN3c4cccc5cccc(c45)S3(=O)=O)CC2)cc1 | 186 |
| O=C(O)C[C@]1(O)C[C@H](CCCCCCc2ccc(C(F)(F)F)cc2C(F)(F)F)OC1=O (relative stereo) | 70 to 73 |
| CC(=O)Nc1cnc(-c2ccccc2)nc1Cl | 179 to 180 |
| COc1cccc2c1CCC(COS(=O)(=O)c1ccc(C)cc1)C2 (stereo not drawn) | 81 to 82 |
| CC(=O)C(C)(CO)CO | 60 |
| COc1ccc2nc(NC(=O)COC(=O)C(C)C)sc2c1 | 141 to 142 |
| Cc1cccc(NC(=O)Nc2ccc(-c3c(C(N)=O)[nH]c4ccccc34)cc2)c1 | 140 to 142 |
| CCNc1nc(Br)cn2c(Br)cnc12 | 131 |
| CC1(C)CCCC(C)(C)N1CCOC(=O)C(Cc1ccccc1)(Cc1ccccc1)C(=O)OCCN1C(C)(C)CCCC1(C)C | 77 to 78 |
| CCCCc1ccc(-c2ncc(C#N)cn2)cc1 | 109 to 110 |
| Cc1cc(F)cc2c1CC/C2=C\C(=O)O | 243 to 246 |
| COc1cccc2sc(-c3ccc(C)cc3)nc12 | 98 to 100 |
| Cc1cc(O)cc2c1C(C)(C)CC2(C)C | 120 |
| O=[N+]([O-])c1ccc(CS(=O)(=O)NCCc2ccccc2)cc1 | 101 to 103 |
| O=C(O)C1CCc2cc(C3CCCCCC3)c(Cl)cc21 (stereo not drawn) | 138 to 140 |
| Brc1ccc2nc(Br)nn2c1 | 201 |
| O=c1[nH]c(NCCCN(Cc2ccccc2)c2ccccn2)ncc1Cc1ccc(Cl)cc1 | 80 to 86 |
| COc1cc(C(=O)Nc2ccc(S(=O)(=O)C(F)(F)F)cc2Cl)c(O)c(C(C)(C)C)c1 | 126 to 127 |
| CC(C)c1nc(CCCOCc2ccccc2)n(CCO)c1Sc1cc(Cl)cc(Cl)c1 | 104 to 106 |
| COc1cc(OC)nc(Oc2cccc(Oc3nc(OC)cc(OC)n3)c2CBr)n1 | 127 |
| Oc1ccc(CN2CC=CCC2)cc1O | > 300 |
| NS(=O)(=O)c1ccc(CCN2C(=O)c3ccccc3C2c2ccccc2)cc1 (stereo not drawn) | 218 |
| CC(C#CC1CCCC1)N(O)C(N)=O (stereo not drawn) | 140 to 141 |
| O=C(Nc1ccc(OCCN2CCOCC2)c2ccccc12)c1cc(F)cc(OC2CCCC2)c1 | 117 to 119 |
| CCOC(=O)CCCCOc1ccc(OCC)cc1C=O | 80 to 81 |

| SMILES | melting point [°C] |
| --- | --- |
| CCOC(=O)C(C(=O)Cc1cc(OC(C)C)c(Cl)cc1F)=C(N)C(F)(F)F | 58 to 59 |
| CONC(=O)Nc1ccc(-c2sc3c(c2CN(C)C(C)c2ccccn2)c(=O)n(-c2ccccc2)c(=O)n3Cc2c(F)cccc2F)cc1 (stereo not drawn) | 146 to 148 |
| Cc1ccc(C(=O)c2ccccc2F)cc1 | 73 to 74 |
| C=CCOC(=O)CC[C@H](NC(=O)Nc1ccc(COC(=O)Oc2ccc([N+](=O)[O-])cc2)cc1)C(=O)OCC=C | 106 to 107 |
| CCOCc1nc2c(N)nc3ccccc3c2n1CCCCS(=O)(=O)N1CCCCC1 | 185 to 188 |
| Cc1ccc(Oc2c(N3C(C)CCC3C)cc(C(=O)O)cc2S(N)(=O)=O)cc1 (stereo not drawn) | 191 to 193 |
| O=C1c2ccccc2CCC1Cc1ccccc1 (stereo not drawn) | 50 to 51 |
| COC(=O)C(C#N)=Cc1cccs1 | 104 to 106 |
| COc1ccccc1C1CCNC(N)=N1 (stereo not drawn) | 189 to 191 |
| CCCNS(=O)(=O)c1ccc(Nc2nc(OCC3CCCCC3)c3nc[nH]c3n2)cc1 | 207 to 208 |
| CC(c1cc(Cl)ccc1N1CCCC1)C(C(N)=O)c1ccc(C(=O)O)cc1 (stereo not drawn) | 202 to 204 |
| COC1(c2cccc(Sc3ccc(C(C)=NO)cc3)c2)CCN(CC(F)(F)F)C1 (stereo not drawn) | 86 to 88 |
| CC1(C)CC(Nc2nc(NC3CC(C)(C)NC(C)(C)C3)nc(N(C3CC(C)(C)NC(C)(C)C3)C3CC(C)(C)NC(C)(C)C3)n2)CC(C)(C)N1 | 235 to 243 |
| CC(=O)NC(C)c1c[nH]c(C)n1 (stereo not drawn) | 125 to 128 |
| Cc1ccc2c3c(ccc2n1)OCC(CN1CC=C(c2c[nH]c4ccccc24)CC1)O3 (stereo not drawn) | 210 |
| COc1ccc(CCN(CCc2ccc(-c3ccccc3)cc2)C(=O)CCCCC(N)=O)cc1OC | 177 to 179 |
| Cc1cc(C)c2c3c([nH]c2c1)C(=O)N=NC3=O | > 250 |
| COc1ccccc1NC(=O)Nc1ccc(CC(=O)O)cc1OC | 182 to 185 |
| CN(C)C(=O)Sc1cc(SC(=O)N(C)C)cc(C(N)=O)c1 | 264 to 265 |
| CC(C)(C)OC(=O)N[C@H](CCOc1ccc(C#N)cc1)C(=O)O | 132 to 146 |
| CNc1nc(-c2cccc(-c3cncc(SC)c3)c2)c2cc(OC)c(OC)cc2n1 | 184 to 186 |
| CC(C)(C)OC(=O)C(CCCCNC(=O)c1ccc(Cl)c(S(N)(=O)=O)c1)NC1Cc2ccccc2C1 (stereo not drawn) | 65 to 68 |
| CN(Cc1cccc(-c2ccc(CC3SC(=O)NC3=O)cc2)c1)C(=O)c1ccc(-c2ccc(O)cc2)cc1 (stereo not drawn) | 211 to 213 |
| CN(Cc1ccccc1)c1ccc(C(=O)O)nc1 | 168 to 173 |
| OC(CNCCCn1cnc2ccccc21)c1ccc(OCc2ccccc2)cc1 (stereo not drawn) | 83 to 85 |

| SMILES | melting point [°C] |
| --- | --- |
| COc1nc(C)nc(NC(=O)NS(=O)(=O)c2ccccc2C=CC(F)(F)F)n1 | 154 to 155 |
| NC(=O)c1cccc(Cc2c[nH]cn2)c1O | 198 |
| CNc1cc(-n2ccc3ccccc32)cc(C)n1 | 156 to 158 |
| COc1ccc(-c2c(CO)c(CO)c3n2Cc2ccccc2C3)cc1 | 174 to 176 |
| CC1COC(=O)N1c1cc(-c2ccnc(Nc3cccc(Cl)c3)n2)ccn1 (stereo not drawn) | 177 to 178 |
| OCC1OC(n2cnc3c(NCC4(c5ccccc5)CCCCC4)ncnc32)C(O)C1O (stereo not drawn) | 87 to 89 |
| N#CC(CCN1C2CCC1CC2)(c1ccccc1)c1ccccc1 | 79 to 81 |
| Cc1cnc(CSc2nc3cc(OC(F)(F)C(F)F)ccc3[nH]2)c(Cl)c1N1CCCCC1 | 170 to 171 |
| O=C1Cc2cc(Br)ccc2O1 | 147 to 148 |
| CN(C)C=CC(=O)c1cccc(NC=O)c1 | 165 to 167 |
| O=C1N(Cc2cccc(O)c2)c2ccccc2C12COc1cc3c(cc12)CCO3 (stereo not drawn) | 225 to 227 |
| Cc1c(NC(=O)CC(C)(C)C)cc2c(c1C)OC(C)(C)C2(O)c1ccccc1 (stereo not drawn) | 109 to 111 |
| COc1ccc(CC(C)=O)cc1S(=O)(=O)N1CCSCC1 | 118 to 122 |
| CCOC1Nc2c(ccc(OC)c2O)C(=O)N2CCCC12 (stereo not drawn) | 155 to 158 |
| Cc1nc2cc(C(=O)NC3CC3)c(NC(=O)c3cc(C(F)(F)F)nn3-c3ncccc3Cl)c(Cl)c2nc1C | 255 to 258 |
| CCN(CC)CCc1ccc2[nH]c(C)c(C(=O)O[C@@H](C)c3ccccc3)c2c1 | 95 to 97 |
| O=[N+]([O-])c1nccn1C1CCCO1 (stereo not drawn) | 91 |
| N=C(NO)c1ccc(-c2cccc(-c3nc4cc(C(=N)NO)ccc4[nH]3)c2)nc1 | 295 to 297 |
| CCC1CCSc2ccc(Nc3ncc(Cl)c(Nc4ccccc4C(=O)NC)n3)nc2C1 (stereo not drawn) | 228 to 231 |
| CN(C)c1nnc(-c2nnc(SCCC(F)=C(F)F)o2)o1 | 87 to 90 |
| CCOC(=O)c1cc(O)c(C(=O)c2ccc(C)cc2)c([N+](=O)[O-])c1 | 145 to 147 |
| O=C(O)c1c(Cc2ccccc2)nc2c(C(F)(F)F)cccc2c1O | 252 |
| C[C@H]1CC[C@H]2C(C)(C)[C@@H](O)CC[C@]23Oc2c(c(O)cc4c2CN(S(=O)(=O)c2ccccc2)C4)C[C@]13C | 150 to 153 |
